Assays:
[1] = target: T1, recombinant human IL-5 (rhIL-5) (Homo sapiens, UniProt P05113); assay: BIAcore inhibition of IL-5 binding to immobilized heparin; settings: BIAcore chip, titration, FIG. 3B
T1 construct: made in house; host or cells: baculovirus expression system
T1 sequence (P05113 20-134): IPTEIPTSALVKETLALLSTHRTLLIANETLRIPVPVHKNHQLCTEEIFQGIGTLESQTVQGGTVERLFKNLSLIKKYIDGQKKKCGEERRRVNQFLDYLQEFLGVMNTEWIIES
Description: The optical phenomenon of surface plasmon resonance is used to monitor physical interactions between molecules. Passing a solution of a potential protein ligand (e.g. IL-4, IL-5 or eotaxin) over a sensor surface to which a target (e.g. heparin) is coupled monitors the real-time binding of protein ligands to the immobilized target. Detection is achieved by measuring refractive index changes very close to the sensor surface. When the refractive index is altered, the angle at which plasmon resonance occurs changes and this change directly correlates with the amount of protein interacting with the surface. A BIAcore 2000 is conveniently used. […]
Biotinylated heparin is immobilized on the biosensor chip. […] Solutions containing potential protein ligands of interest are injected over the sensor chip surface, and the binding is measured in real time (Fernig, In: Proteoglycan protocols, Ed. R. V. Iozzo, Humana Press, Totowa, N.J., USA, 2001). Baculovirus expressed recombinant human IL-4 (rhIL-4) and baculovirus expressed recombinant human IL-5 (rhIL-5) readily bind to heparin immobilized by this method (see PCT/AU2005/000551). […] Similarly, recombinant human eotaxin (CCL11) expressed in E. coli binds readily to immobilized heparin and binding is specific as there is little eotaxin binding to sensor chips lacking heparin. […]

human GM-CSF = human GM-CSF (Homo sapiens, UniProt P04141); assay: GM-CSF dependent TF-1.8 cell proliferation; format: cell-based; settings: 10 μg/ml and 1 μg/ml, GM-CSF 0.025 ng/ml, FIG. 7
Procedure: TF-1.8 cells were derived from TF-1 cells that respond to human GM-CSF (granulocyte-macrophage colony stimulating factor). TF-1.8 cells retained their responsiveness to GM-CSF. Routinely 2.5×10^4 cells are added to microplate wells that contain either no GM-CSF (negative control) or various dilutions of GM-CSF. The cells are cultured for 48 hours at 37° C. in a humidified atmosphere, after which the luciferase activity is measured by the addition of 50 μl of luciferase substrate buffer (50 mM Tris-HCl, pH 7.8, 15 mM MgSO4, 33.3 mM DTT, 0.1 mM EDTA, 0.5 mM Na-luciferin, 0.5 mM ATP, 0.25 mM lithium Co A and 0.5% v/v Triton X-100). Immediately after the addition of the luciferase buffer the plate is assayed for luciferase activity. Light emissions are detected on a Victor 1420 Multi-label counter (Wallac, Turku, Finland). A titration of GM-CSF established that these cells are dependent upon this growth factor (FIG. 6). When the effect of PPS, or other sulfated polysaccharides is to be measured, the wells also contain various concentrations of these molecules as well as the GM-CSF.

[2] = test system: Guinea pigs sensitized to OVA and challenged with inhaled OVA; assay: Second guinea pig asthma model, parameters 8 hours after OVA inhalation; format: in vivo
Procedure: A slightly different animal model was also examined. In this model Guinea pigs were sensitized to OVA twice by an intraperitoneal injection of 0.5 ml saline containing 20 mg Al(OH)3 and 20 μg OVA. The sensitizations are performed on days 0 and 7. Three weeks after the last sensitization, animals were pre-treated with either vehicle or drugs 30 min prior to inhalation of OVA (at 10 mg/ml) for 6 min (allergen challenge). For the negative control, animals received either sensitization and challenge with saline or sensitization with saline and challenge with OVA. Animals were terminated and all parameters measured 8 hours after the provocation. Vehicle or drugs were administered intra-tracheally, 1 ml/kg body weight, 30 min before the intra-tracheal challenge with OVA. The vehicle for compounds was saline. Budesonide as the reference compound was dissolved in the vehicle at concentrations of 1 mg/ml. To measure airway resistance (RL.) and lung compliance (Cdyn) bronchoconstriction was evoked with aerosolized methacholine (3 mg/ml, 10 mg/ml and 30 mg/ml). The difference between baseline readings and that obtained after methacholine were used to calculate Cdyn and RL. Bronchoalveolar lavage (BAL) was performed immediately after the lung function measurements. BAL was analysed for protein content (as a measure of leakage) and leukocyte number, differential cell counts were performed to indicate what subsets of leukocytes were best affected by the drugs.

human MCP-1 = human MCP-1 (Homo sapiens, UniProt P13500); assay: MCP-1 induced migration of THP-1 cells (chemotaxis); format: cell-based; settings: 50 μg/ml, MCP-1 10 ng/ml
Procedure: These cells were originally derived from the peripheral blood of a patient with acute monocytic leukaemia. The assay was very similar to that described above. The chemotaxis assays were performed in 96-well Costar chemotaxis plates and human MCP-1 (+/−inhibitor) was added to the bottom chamber and the THP-1 cells in RPMI/1% FCS were added to the top chamber and the plate was incubated at 37° C. for 2.5 hour to allow cells to move from the top chamber into the bottom. The number of cells migrating into the bottom chamber was quantified by labeling with AQUEOUS ONE (30 μl/well) for 4 hours before absorbance at 490 run is read. MCP-1 was used at a final concentration of 10 ng/ml and the inhibitors were the sulfated xylan pentasaccharide (10 and 50 μg/ml) and PPS (10 and 50 μg/ml). In these experiments both PPS and the sulfated xylan pentasaccharide were effective, but PPS was a better inhibitor (FIG. 18) as at 50 μg/ml PPS inhibited cell movement by 89% whereas at the same concentration the sulfated xylan pentasaccharide cell movement by 53%.

[3] = relative to heparin; cited from earlier work

Sequence of human MCP-1 (P13500 24-99): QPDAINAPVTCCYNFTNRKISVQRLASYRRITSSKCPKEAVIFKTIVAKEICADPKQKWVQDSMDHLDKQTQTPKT
Sequence of human GM-CSF (P04141 18-144): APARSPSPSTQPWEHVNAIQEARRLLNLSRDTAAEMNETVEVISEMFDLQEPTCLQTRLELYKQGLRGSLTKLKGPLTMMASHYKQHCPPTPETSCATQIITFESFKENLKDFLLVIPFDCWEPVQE

IC50 [1]: 4 to 10 nM
Effect on TF-1.8 cell proliferation obtained with GM-CSF (human GM-CSF): no effect
Inhibition of cell movement induced by MCP-1 (human MCP-1): 89%
Substance: Pentosan polysulfate [PPS]
Inhibition of RL (airway resistance) ([2]; 0.5 mg/kg, FIG. 15A): 103%
Inhibition of RL (airway resistance) ([2]; 2.4 mg/kg, FIG. 15A): 94%
Inhibition of RL (airway resistance) ([2]; 10 mg/kg, FIG. 15A): 100%
Total number of infiltrating leukocytes in the bronchoalveolar fluid (in words) ([2]; 0.1, 0.5, 2.5, 10 mg/kg intra-tracheal, FIG. 14B): significantly reduced
Total protein content in the bronchoalveolar fluid ([2]; 0.1, 0.5, 2.5, 10 mg/kg intra-tracheal, all except 0.1 mg/kg significant (P<0.05), dose dependent, FIG. 14A): significantly reduced
Inhibitory effect on RL (airway resistance) ([2]; all doses, after 10 mg/ml methacholine, FIG. 15A): more than 90%
Effect on alterations of lung compliance (Cdyn) ([2]; represented as an increase in lung compliance, FIG. 15B): Inhibitory effects
Anticoagulant activity as fraction of that of heparin [3]: about 1/15

From patent publication US20180078576A1, “SULPHATED XYLANS FOR TREATMENT OR PROPHYLAXIS OF RESPIRATORY DISEASES” (Paradigm Biopharmaceuticals Limited, priority 2007, published 2018)
